In US10820591B2, “Substituted sulfonyl amides for controlling animal pests” (Bayer Aktiengesellschaft, priority 2016, dated 2020):

system: Meloidogyne incognita; assay: Meloidogyne incognita test (sand, lettuce, gall formation); format: in vivo; conditions: Meloidogyne incognita, 336 h, 20 ppm, after 14 days; read-out: nematicidal efficacy (formation of galls)
Protocol: Meloidogyne incognita Test [table] To produce a suitable active compound preparation, 1 part by weight of active compound is mixed with the stated amount of solvent and the concentrate is diluted to the desired concentration with water. Vessels are filled with sand, active compound solution, an egg/larvae suspension of the southern root-knot nematode (Meloidogyne incognita) and lettuce seeds. The lettuce seeds germinate and the plants develop. The galls develop on the roots. After 14 days, the nematicidal efficacy in % is determined by the formation of galls. 100% means that no galls were found; 0% means that the number of galls on the treated plants corresponds to the untreated control.

`O=C(NS(=O)(=O)c1ccc(Cl)cc1)c1cn(Cc2c(F)cccc2F)cn1` [I-001] and `O=C(NS(=O)(=O)c1ccccc1Cl)c1cn(Cc2c(F)cccc2F)cn1` [I-003] are the same in pest or weed control at 20 ppm: 90% for the first, 90% for the second.

`COc1ccc(Cl)c(S(=O)(=O)NC(=O)c2cn(Cc3c(F)cccc3F)cn2)c1` [I-002] and `COc1ccc(S(=O)(=O)NC(=O)c2cn(CC(F)(F)F)cn2)cc1` [I-027] are the same in pest or weed control at 20 ppm: 90% for the first, 90% for the second.

First: Cc1nc(C(=O)NS(=O)(=O)C(C)C)cn1-c1c(F)cccc1F [I-005]
Second: CC(C)S(=O)(=O)NC(=O)c1ncn(CCC(F)(F)F)c1Br [I-009]
The pest or weed control at 20 ppm of the first is higher: 100% for the first, 90% for the second.

First: O=C(NS(=O)(=O)c1ccccc1Cl)c1ncn(CCC(F)(F)F)c1I [I-008]
Second: O=C(NS(=O)(=O)c1ccccc1Cl)c1ncn(CCC(F)(F)F)c1Br [I-011]
The pest or weed control at 20 ppm of the first is higher: 100% for the first, 70% for the second.

`O=C(NS(=O)(=O)c1ccc(Cl)cc1)c1ncn(CCC(F)(F)F)c1Cl` [I-012] and `O=C(NS(=O)(=O)c1ccc(Cl)cc1)c1ncn(CCOC(F)(F)F)c1Cl` [I-057] are the same in pest or weed control at 20 ppm: 100% for the first, 100% for the second.

Going from `O=C(NS(=O)(=O)c1ccc(Cl)cc1Cl)c1ncn(CC(F)(F)F)c1Cl` [I-013] to `O=C(NS(=O)(=O)c1cc(Cl)ccc1Cl)c1ncn(CCC(F)(F)F)c1Cl` [I-015], the pest or weed control at 20 ppm rises from 70% to 90%.

`O=C(NS(=O)(=O)c1ccc(Cl)cc1Cl)c1cn(CC(F)(F)F)cn1` [I-014] and `O=C(NS(=O)(=O)c1ccc(Cl)cc1)c1cn(CC(F)(F)F)cn1` [I-025] are the same in pest or weed control at 20 ppm: 90% for the first, 90% for the second.

`O=C(NS(=O)(=O)c1c(Cl)cccc1Cl)c1ncn(CC(F)(F)F)c1Cl` [I-016] and `Cc1ccc(S(=O)(=O)NC(=O)c2ncn(CC(F)(F)F)c2Cl)cc1` [I-023] are the same in pest or weed control at 20 ppm: 90% for the first, 90% for the second.

`Cc1ccccc1S(=O)(=O)NC(=O)c1cn(CCC(F)(F)F)cn1` [I-017] and `Cc1ccc(S(=O)(=O)NC(=O)c2cn(CCC(F)(F)F)cn2)cc1` [I-022] are the same in pest or weed control at 20 ppm: 90% for the first, 90% for the second.

`O=C(NS(=O)(=O)c1cccc(C(F)(F)F)c1)c1ncn(CCC(F)(F)F)c1Cl` [I-018] and `O=C(NS(=O)(=O)c1ccc(C(F)(F)F)cc1)c1ncn(CCC(F)(F)F)c1Cl` [I-021] are the same in pest or weed control at 20 ppm: 90% for the first, 90% for the second.

`O=C(NS(=O)(=O)c1cccc(C(F)(F)F)c1)c1cn(CC(F)(F)F)cn1` [I-019] and `Cc1ccc(S(=O)(=O)NC(=O)c2cn(CC(F)(F)F)cn2)cc1` [I-024] are the same in pest or weed control at 20 ppm: 90% for the first, 90% for the second.

`O=C(NS(=O)(=O)c1cccc(Cl)c1)c1ncn(CCC(F)(F)F)c1Cl` [I-020] and `O=C(NS(=O)(=O)c1cccc(Cl)c1)c1ncn(CCOC(F)(F)F)c1Cl` [I-056] are the same in pest or weed control at 20 ppm: 90% for the first, 90% for the second.

`COc1ccc(S(=O)(=O)NC(=O)c2cn(CCC(F)(F)F)cn2)cc1` [I-026] and `COc1ccc(S(=O)(=O)NC(=O)c2ncn(CCOC(F)(F)F)c2Cl)cc1` [I-055] are the same in pest or weed control at 20 ppm: 90% for the first, 90% for the second.

First: O=C(NS(=O)(=O)Cc1ccccc1)c1ncn(CC(F)(F)F)c1Cl [I-029]
Second: Cc1ccccc1CS(=O)(=O)NC(=O)c1ncn(CCC(F)(F)F)c1Cl [I-093]
The pest or weed control at 20 ppm of the first is lower: 70% for the first, 100% for the second.

`O=C(NS(=O)(=O)c1ccc2c(c1Cl)OC(F)(F)O2)c1ncn(CCC(F)(F)F)c1Cl` [I-030] and `O=C(NS(=O)(=O)c1ccc(Cl)s1)c1ncn(CCC(F)(F)F)c1Cl` [I-094] are the same in pest or weed control at 20 ppm: 90% for the first, 90% for the second.

`CC(=O)Oc1ccc(S(=O)(=O)NC(=O)c2ncn(CCC(F)(F)F)c2Cl)cc1` [I-031] and `CCOc1ccc(S(=O)(=O)NC(=O)c2ncn(CCC(F)(F)F)c2Cl)cc1` [I-088] are the same in pest or weed control at 20 ppm: 90% for the first, 90% for the second.

`O=C(NS(=O)(=O)c1ccc(OC(F)(F)F)cc1)c1ncn(CCC(F)(F)F)c1Cl` [I-033] and `CC(C)Oc1ccc(S(=O)(=O)NC(=O)c2ncn(CCC(F)(F)F)c2Cl)cc1` [I-034] are the same in pest or weed control at 20 ppm: 90% for the first, 90% for the second.

Compared with `COc1cc(C)c(S(=O)(=O)NC(=O)c2ncn(CCC(F)(F)F)c2Cl)c(C)c1` [I-036], `COc1cc(OC)cc(S(=O)(=O)NC(=O)c2ncn(CCC(F)(F)F)c2Cl)c1` [I-087] is lower in pest or weed control at 20 ppm: 100% for the first, 70% for the second.

Going from `CCCn1cnc(C(=O)NS(=O)(=O)c2ccccc2)c1Cl` [I-038] to `CC(C)CCn1cnc(C(=O)NS(=O)(=O)c2ccccc2)c1Cl` [I-044], the pest or weed control at 20 ppm rises from 90% to 100%.

`CCCn1cnc(C(=O)NS(=O)(=O)c2ccc(OC)cc2)c1Cl` [I-039] and `COc1ccc(S(=O)(=O)NC(=O)c2ncn(CCC(C)C)c2Cl)cc1` [I-045] are the same in pest or weed control at 20 ppm: 100% for the first, 100% for the second.

Compared with `CCCn1cnc(C(=O)NS(=O)(=O)c2ccccc2Cl)c1Cl` [I-040], `CCCn1cnc(C(=O)NS(=O)(=O)c2cccc(Cl)c2)c1Cl` [I-041] is higher in pest or weed control at 20 ppm: 70% for the first, 100% for the second.

`CCCn1cnc(C(=O)NS(=O)(=O)c2cccc(OC)c2)c1Cl` [I-043] and `COc1cccc(S(=O)(=O)NC(=O)c2ncn(CCC(C)C)c2Cl)c1` [I-047] are the same in pest or weed control at 20 ppm: 100% for the first, 100% for the second.

Going from `CC(C)CCn1cnc(C(=O)NS(=O)(=O)c2ccc(Cl)cc2)c1Cl` [I-046] to `O=C(NS(=O)(=O)c1ccc(Cl)cc1)c1ncn(CCCCl)c1Cl` [I-052], the pest or weed control at 20 ppm falls from 100% to 90%.

Going from `COc1ccccc1S(=O)(=O)NC(=O)c1ncn(CCC(C)C)c1Cl` [I-048] to `COc1ccccc1S(=O)(=O)NC(=O)c1ncn(C(C)CC(F)(F)F)c1Cl` (stereo not shown) [I-075], the pest or weed control at 20 ppm falls from 90% to 70%.

`O=C(NS(=O)(=O)c1ccccc1)c1ncn(CCCCl)c1Cl` [I-049] and `O=C(NS(=O)(=O)c1cccc(Cl)c1)c1ncn(CCCCl)c1Cl` [I-051] are the same in pest or weed control at 20 ppm: 90% for the first, 90% for the second.

`COc1ccc(S(=O)(=O)NC(=O)c2ncn(CCCCl)c2Cl)cc1` [I-050] and `COc1cccc(S(=O)(=O)NC(=O)c2ncn(CCCCl)c2Cl)c1` [I-053] are the same in pest or weed control at 20 ppm: 90% for the first, 90% for the second.

Compared with `O=C(NS(=O)(=O)c1ccccc1)c1ncn(CCOC(F)(F)F)c1Cl` [I-054], `COc1cccc(S(=O)(=O)NC(=O)c2ncn(CCOC(F)(F)F)c2Cl)c1` [I-058] is lower in pest or weed control at 20 ppm: 90% for the first, 70% for the second.

`O=C(NS(=O)(=O)c1cccc(Cl)c1)c1ncn(C2CC2C(F)(F)F)c1Cl` (stereo not shown) [I-061] and `O=C(NS(=O)(=O)c1cccc(Cl)c1)c1ncn(C2CCCC2C(F)(F)F)c1Cl` (stereo not shown) [I-065] are the same in pest or weed control at 20 ppm: 90% for the first, 90% for the second.

`O=C(NS(=O)(=O)c1ccc(Cl)cc1)c1ncn(C2CC2C(F)(F)F)c1Cl` (stereo not shown) [I-062] and `O=C(NS(=O)(=O)c1ccc(Cl)cc1)c1ncn(C2CCCC2C(F)(F)F)c1Cl` (stereo not shown) [I-066] are the same in pest or weed control at 20 ppm: 90% for the first, 90% for the second.

Compared with `COc1cccc(S(=O)(=O)NC(=O)c2ncn(C3CC3C(F)(F)F)c2Cl)c1` (stereo not shown) [I-063], `COc1cccc(S(=O)(=O)NC(=O)c2ncn(C3CCCC3C(F)(F)F)c2Cl)c1` (stereo not shown) [I-067] is lower in pest or weed control at 20 ppm: 100% for the first, 70% for the second.

Going from `COc1ccccc1S(=O)(=O)NC(=O)c1ncn(C2CC2C(F)(F)F)c1Cl` (stereo not shown) [I-064] to `COc1ccccc1S(=O)(=O)NC(=O)c1ncn(C2CCCC2C(F)(F)F)c1Cl` (stereo not shown) [I-068], the pest or weed control at 20 ppm falls from 100% to 90%.

`CC(CC(F)(F)F)n1cnc(C(=O)NS(=O)(=O)c2ccccc2)c1Cl` (stereo not shown) [I-069] and `CC(CC(F)(F)F)n1cnc(C(=O)NS(=O)(=O)c2ccccc2Cl)c1Cl` (stereo not shown) [I-071] are the same in pest or weed control at 20 ppm: 100% for the first, 100% for the second.

`CC(CC(F)(F)F)n1cnc(C(=O)NS(=O)(=O)c2cccc(Cl)c2)c1Cl` (stereo not shown) [I-072] and `COc1cccc(S(=O)(=O)NC(=O)c2ncn(C(C)CC(F)(F)F)c2Cl)c1` (stereo not shown) [I-074] are the same in pest or weed control at 20 ppm: 100% for the first, 100% for the second.

Going from `COc1ccc(S(=O)(=O)NC(=O)c2ncn(CC(F)(F)C(F)(F)F)c2Cl)cc1` [I-076] to `O=C(NS(=O)(=O)c1ccc(Cl)cc1)c1ncn(CC(F)(F)C(F)(F)F)c1Cl` [I-078], the pest or weed control at 20 ppm rises from 90% to 100%.

`O=C(NS(=O)(=O)c1ccccc1)c1ncn(CC(F)(F)C(F)(F)F)c1Cl` [I-077] and `O=C(NS(=O)(=O)c1cccc(Cl)c1)c1ncn(CC(F)(F)C(F)(F)F)c1Cl` [I-079] are the same in pest or weed control at 20 ppm: 100% for the first, 100% for the second.

`O=C(NS(=O)(=O)c1ccccc1Cl)c1ncn(CC(F)(F)C(F)(F)F)c1Cl` [I-080] and `COc1ccccc1S(=O)(=O)NC(=O)c1ncn(CC(F)(F)C(F)(F)F)c1Cl` [I-081] are the same in pest or weed control at 20 ppm: 90% for the first, 90% for the second.

`COc1cccc(S(=O)(=O)NC(=O)c2ncn(CC(F)(F)C(F)(F)F)c2Cl)c1` [I-082] and `CSc1ccc(S(=O)(=O)NC(=O)c2ncn(CCC(F)(F)F)c2Cl)cc1` [I-089] are the same in pest or weed control at 20 ppm: 100% for the first, 100% for the second.

First: O=C(NS(=O)(=O)Cc1ccc(Cl)cc1)c1ncn(CCC(F)(F)F)c1Cl [I-084]
Second: Cc1ccc(CS(=O)(=O)NC(=O)c2ncn(CCC(F)(F)F)c2Cl)cc1 [I-092]
The pest or weed control at 20 ppm of the first is higher: 100% for the first, 70% for the second.

Going from `O=C(NS(=O)(=O)c1cc(Cl)c(Cl)s1)c1ncn(CCC(F)(F)F)c1Cl` [I-086] to `O=C(NS(=O)(=O)c1cccs1)c1ncn(CCC(F)(F)F)c1Cl` [I-097], the pest or weed control at 20 ppm rises from 70% to 90%.

`CCCCOc1ccc(S(=O)(=O)NC(=O)c2ncn(CCC(F)(F)F)c2Cl)cc1` [I-090] and `CC(=O)Nc1ccc(S(=O)(=O)NC(=O)c2ncn(CCC(F)(F)F)c2Cl)cc1` [I-091] are the same in pest or weed control at 20 ppm: 90% for the first, 90% for the second.

`Cc1noc(C)c1S(=O)(=O)NC(=O)c1ncn(CCC(F)(F)F)c1Cl` [I-095] and `COc1cc(OC)nc(Oc2ccc(S(=O)(=O)NC(=O)c3ncn(CCC(F)(F)F)c3Cl)cc2)n1` [I-096] are the same in pest or weed control at 20 ppm: 90% for the first, 90% for the second.
